Columns and labels:
[1] = system: polychromatic erythrocytes of F0, F1 and F2 mice; experiment: Micronuclei assay in polychromatic erythrocytes of tail blood; format: in vivo, mouse
Excerpt: To evaluate the possibility of transgenerational transmission of DNA damage, the frequency of micronuclei is used as a sensitive indicator of the extent of propagated genomic damage (Trott, K. R., Jamali, M., Manti, L. & Teibe, A. Manifestations and mechanisms of radiation-induced genomic instability in V-79 Chinese hamster cells. Int. J. Radiat. Biol. 74, 787-791 (1998); Manti, L., Jamali, M., Prise, K. M., Michael B. D. & Trott, K. R. Genomic instability in Chinese hamster ovary cells after exposure to X rays or alpha particles of different mean energy transfer. Radiat. Res. 147, 22-28 (1997)). Tail blood samples from 16-18 month old non-irradiated, vehicle-treated and irradiated, or S1P-treated and irradiated F0 mice, 16-18 month old F1 mice, or 12-16 month old F2 mice, are smeared onto glass microscope slides coated with acridine orange (Shinko Corporation, New York, N.Y.), and coded prior to analysis. The frequency of micronuclei is then assessed in the 10^3 polychromatic erythrocytes by flourescence microscopy (Hayashi, M., Morita, T., Kodama, Y., Sofuni, T., & Ishidate, M., Jr. The micronucleus assay with mouse peripheral blood reticulocytes using acridine orange-coated slides. Mutat. Res. 245, 245-249 (1990)), after which the slides are decoded for data interpretation.

[2] = system: germ cells of wild-type fetal ovaries (e13.5); experiment: Fetal ovary culture without hormonal support, germ cell survival; format: cell-based, mouse
Description: To determine the basis of the extensive oocyte hyperplasia in ASMase −/− neonates, fetal ovaries are harvested from wild-type and mutant mice at embryonic day 13.5 (e13.5) for in vitro culture as a model to recapitulate the events surrounding germline death that occurs as a normal component of female gametogenesis. A time-dependent activation of programmed cell death is observed in the germline of wild-type fetal ovaries cultured without hormonal support for up to 72 hours (FIG. 2A). […] These findings indicate that there exists an ovarian-intrinsic cell death defect in the ASMase-deficient mouse, and point to enhanced survival of the developing germline during oogenesis as the mechanism underlying the enlarged oocyte pool seen in mutant females at birth.
Equivalent levels of in vitro germ cell survival are obtained by either ASMase gene knockout (FIG. 2A) or by S1P treatment (FIG. 2B).

oocytes = details: mouse oocytes cultured with S1P before doxorubicin exposure; Perez et al. (1997); cited from earlier work

For `CCCCCCCCCCCCC/C=C/[C@@H](O)[C@@H](N)COP(=O)(O)O` [S1P, sphingosine-1-phosphate], the “frequency of micronuclei in F0 animals versus non-irradiated controls” value ([1]; 0.1 Gy, S1P-treated, statistically significant (P<0.01)) was “small increase in the frequency of micronuclei over non-irradiated controls”, the “frequency of micronuclei, vehicle-treated versus S1P-treated irradiated mice” value ([1]; F0, 0.1 Gy) was “no significant difference in the frequency of micronuclei” and the “share of starting population of germ cells preserved” value ([2]; after 72 hours of hormone deprivation, versus 0 h) was “Over one-half of the starting population of germ cells (0 h or Time 0) is preserved”. For the same compound, the “germ cell survival / germ cell apoptosis in cultured fetal ovaries” value ([2]; wild-type fetal ovaries, 72 hours in vitro without hormonal support, FB1 5-500 μM, S1P increasing concentrations) was “the reduced incidence of germ cell apoptosis conveyed by ASMase-deficiency is recapitulated” and the “protection of oocytes from doxorubicin-induced death in vitro” value (oocytes) was “protected the oocytes from death induced by subsequent doxorubicin exposure for up to 24 hours”.

— US7850984B2, “Protection of the female reproductive system from natural and artificial insults” (The General Hospital Corporation, priority 2000, dated 2010)
